Paper PMC8851282, “Senolysis induced by 25-hydroxycholesterol targets CRYAB in multiple cell types” (iScience, 2022)

Assays:
FAPs [1] = assay: Cell viability assay (cell counting kit-8) of senescent and non-senescent FAPs treated with inhibitors; format: cell-based, mouse; conditions: for IC50: FAPs; for viability of senescent versus non-senescent FAPs: Doxo-induced senescence, viability on day 5, 25HC at concentrations between 0.1 and 1 μM
Protocol: (§1) Figure 3 25HC is a senolytic in multiple muscle cell types (A) Targets, compounds, and mechanisms. (B) Timeline of cell viability assay with inhibitors. Cells were pre-cultured for 24 h, treated with Doxo for 24 h, and then treated with inhibitors. Cell viability was analyzed from day 0–7. (C–E) Effects of inhibitors on viability of FAPs, SCs, and HSMMs. Cells were treated with inhibitors at the indicated concentrations. Cell viability was analyzed on day 3 (HSMMs) or 5 (FAPs and SCs). Blue and red dots indicate non-senescent (NS) and senescent (SEN), respectively. The average value at 0 μM for each group was set at 100% cell viability. p values versus NS were obtained using unpaired two-tailed Student’s t test. ∗p < 0.05, ∗∗p < 0.01, and ∗∗∗p < 0.001.
(§2) Figure 4 EC50 fitted curves (triplicates) of inhibitor effects at 3 and 7 days in FAPS and SCs EC50 was defined as the concentration of inhibitors that provokes a response halfway between baseline and maximum senolytic activity. EC50 values were determined by four- parameter logistic modeling using GraphPad Prism 8.0.
(§3) Hind limb muscles were digested in DMEM containing 0.5% (w/v) collagenase type II (Worthington) for 90 min at 37 °C with trituration and passed through a 40-μm nylon mesh. Erythrocytes were eliminated by treating with BD Pharm Lyse (BD Biosciences). Cells were resuspended in a washing buffer of PBS with 2% FBS and stained with antibodies for 30 min at 4 °C as described ([Kamizaki et al., 2017]). FAPs and SCs were isolated from the suspension by FACS (Aria II, BD Biosciences) using anti-CD31, CD45, Sca-1, PDGFR and VCAM1 antibodies. FAPs were identified as Sca1/PDGFR-positive and CD31-, CD45- and VCAM1-negative cells ([Uezumi et al., 2010]). SCs were identified as VCAM1-positive and CD31-, CD45-, Sca-1 and PDGFR-negative cells ([Liu et al., 2015]).
(§4) All experiments were performed in incubators at 37 °C, 3% O2 and 5% CO2. Senescence was induced by treatment with either Doxo (250 nM for 24 h) ([Demaria et al., 2017]) or X-irradiation (10 Gy) ([Limbad et al., 2020]). For cell culture studies using 25HC, it was used at the indicated concentrations in the media.
(§5) FAPs and SCs were cultured on Matrigel-coated dishes (BD Biosciences) in growth medium (GM) consisting of DMEM plus 10% FBS, 1% penicillin-streptomycin and 10% MyoCult (STEMCELL Technologies) for 7 days. Human myogenic cell HSMMs (Lonza) were maintained according to the manufacturer’s instructions with SkGM-2 medium (Lonza).
(§6) Cell viability was assessed using a cell counting kit-8 from Dojindo Molecular Technologies, Inc (Cat CK04-20). Cells were incubated with culture media + 10% kit cell viability reagent, 150 μL/well in 96-well plates for 2 h. The supernatant was transferred to a new 96-well plate and absorbance read at 450 nm as recommended in the product datasheet.

SCs [2] = assay: Single-cell RNA sequencing of SCs from skeletal muscle of mice treated with PBS, Doxo or Doxo + ABT (differential gene expression); conditions: four-month-old male mice; Doxo 10 mg/kg i.p.; ABT 50 mg/kg/day by gavage, 2 cycles of 5 days
FAPs [3] = assay: Single-cell RNA sequencing of FAPs from skeletal muscle of mice treated with PBS, Doxo or Doxo + ABT (differential gene expression); conditions: for senescent FAPs in mouse skeletal muscle (scRNA seq): four-month-old male mice, Doxo 10 mg/kg i.p., ABT 50 mg/kg/day by gavage, 2 cycles of 5 days
senescent cells = assay: Senescent cell burden in mice treated with Doxo or Doxo + ABT; conditions: four-month-old male mice; Doxo 10 mg/kg; ABT 50 mg/kg/day after Doxo
[4] = system: human skeletal muscle myoblasts (HSMMs); assay: Cell viability assay (cell counting kit-8) of senescent and non-senescent HSMMs treated with inhibitors; format: cell-based; conditions: for IC50: Homo sapiens, Myoblast, HSMM; for viability of senescent versus non-senescent HSMMs: Doxo-induced senescence, viability on day 3
Protocol: as §1, §4, §5, §6

SCs [5] = assay: Cell viability assay (cell counting kit-8) of senescent and non-senescent SCs treated with inhibitors; format: cell-based, mouse; conditions: for viability of senescent versus non-senescent SCs: Doxo-induced senescence, viability on day 5
Protocol: as §1, §2, §3, §4, §5, §6

FAPs [6] = assay: Senescence induction by Doxo in cultured primary FAPs (qRT-PCR of marker genes, growth rate); format: cell-based, mouse; conditions: 250 or 100 nM Doxo
[7] = Body weight and gastrocnemius muscle weight in Doxo-treated mice; format: in vivo, mouse; conditions: 4 mg/kg Doxo i.p., 5 injections, versus PBS
Protocol: (§7) Figure 8 25HC induces senolysis in vivo in Doxo-treated mice (A) Timeline of 25HC treatment in Doxo-treated mice. Mice were given 4 mg/kg Doxo or PBS for 5 daily injections[A1], then injected with 25HC or vehicle for 7 consecutive days. (B) Mass of gastrocnemius muscles. Muscle weight was normalized to body weight. (C) Cdkn2a and Cryab mRNA levels in gastrocnemius (Gastroc) and soleus (Sol) muscles. RNA was collected 28–30 d after the first treatment with Doxo. mRNA levels were quantified by qRT-PCR, and normalized to actin mRNA levels. The average value of PBS-vehicle was set at 1. (D) 15-d-PGJ2 analysis in urine. Urine was collected at 24 h after the first treatment with 25HC or HbCD. p values versus PBS-Veh or Doxo-Veh are obtained using Tukey's multiple comparisons test. ∗p < 0.05, ∗∗p < 0.01, p < 0.001, and ∗∗∗∗p < 0.0001.
Male C57BL/6J mice (3–4 months old) were purchased from the Jackson Laboratory. We performed five i.p. injections with 4 mg/kg of Doxo (Tocris Bioscience, Product# 2252) for each injection over 10 days (Figure 6A). Therefore, we injected a total of 20 mg/kg of Doxo/mouse over 10 days. […] Senescence markers p16^INK4a, p21^Cip1 and CRYAB expression was analyzed on gastrocnemius (Gastroc), soleus (So), tibialis anterior (TA), visceral fat (VF), kidney (Ki), liver (Li), lung (Lu), heart (He), and skin (Sk) samples by qRT-PCR.

[8] = system: Cdkn1a and Cryab mRNA in gastrocnemius and soleus muscles; assay: qRT-PCR of senescence markers and Cryab in muscles of Doxo-treated mice given 25HC; format: in vivo, mouse; conditions: mice, 4 mg/kg Doxo i.p., 5 injections, versus PBS
Protocol: as §7
Male C57BL/6J mice (3–4 months old) were purchased from the Jackson Laboratory. We performed five i.p. injections with 4 mg/kg of Doxo (Tocris Bioscience, Product# 2252) for each injection over 10 days (Figure 6A). Therefore, we injected a total of 20 mg/kg of Doxo/mouse over 10 days. We used EFT-PBS (EMD Millipore, Product# TMS-012-A) as a control. To test effects of 25HC (Tocris Bioscience, Product# 5741) on Doxo-treated mice, we prepared three experimental groups (n=15 for each group): 1) PBS+HβCD vehicle (22.5%), 2) Doxo (20 mg/kg)+vehicle (22.5%), 3) Doxo (20 mg/kg)+25HC (50 mg/kg) (Figure 6A); 25HC was dissolved in 22.5% 2-hydroxypropyl-beta-cyclodextrin (HβCD) (Tocris Bioscience, Product 0708). On the Day 5 after the last Doxo/PBS injections, the mice were treated with either 25HC (50 mg/kg) or vehicle by i.p. injections for 7 consecutive days (Figure 6A). 12 hr after the first 25HC or vehicle treatments, urine was collected (Figure 6A) from each group to test for the senolysis marker 15-d-PGJ2. […] Senescence markers p16^INK4a, p21^Cip1 and CRYAB expression was analyzed on gastrocnemius (Gastroc), soleus (So), tibialis anterior (TA), visceral fat (VF), kidney (Ki), liver (Li), lung (Lu), heart (He), and skin (Sk) samples by qRT-PCR. […]

SCs [9] = assay: Senescence induction by Doxo in cultured primary SCs (qRT-PCR of marker genes, growth rate); format: cell-based, mouse; conditions: 250 or 100 nM Doxo
[10] = system: mouse dermal fibroblasts (mDFs); assay: Cell viability assay of NS and SEN mouse dermal fibroblasts treated with CRYAB and HMOX1 inhibitors; format: cell-based; conditions: 250 nM Doxo-induced senescence; after 72 h of treatment; 25HC at five or 10 μM
Protocol: The average value of DMSO was set at 1. (B and D) Effects of CRYAB and HMOX1 inhibitors on DMSO-treated NS or Doxo-treated SEN cells; (B) mDFs, (D) IMR-90s. Cells were treated with the inhibitors at the indicated concentrations. Cell viability was measured after 72 h. (C) IMR-90 qRT-PCR. For qPCR: mean +/- SE, n =4, ∗p< 0.05, ∗∗p< 0.01, ∗∗∗p<0.001, ∗∗∗∗p<0.0001 by Dunnett’s multiple comparisons test vs DMSO. For cell viability assays: mean +/- SE, n =3, ∗∗p< 0.01, ∗∗∗p<0.001, ∗∗∗∗p<0.0001 vs 0 mM by student’s t test.
For skin sample collection, mice were euthanized, hair removed from dorsal skin and the area cleaned with alcohol. A small 1 cm x 1 cm region of skin was removed, and subcutaneous fat removed by scalpel. Skin was digested in 2–3 ml of 0.25% trypsin at 37 °C for 1 h. Hair and epidermis were further removed, and the dermis was minced into 2–3 mm pieces. Digestion of the sample in 5 ml of 1 mg/ml collagenase (Sigma, Cat#C5138) in HBSS (with Ca^++ and Mg^++) (Gibco, cat#24020117) was carried out at 37 °C on a shaker for 1 h. Collagenase digestion was stopped by addition of 10 ml 10% FBS DMEM. Filtration of the homogenate through a 70-micron mesh was performed to remove undigested tissue. Differential centrifugation and washing were performed at 1200 rpm for 5 min, and the pellet was resuspended in 10% FBS DMEM then seeded in a six-well plate. Media were changed at 5 days after seeding and then every 3 days.
as §4, §6

CC1(C)CCC(c2ccc(Cl)cc2)=C(CN2CCN(c3ccc(C(=O)NS(=O)(=O)c4ccc(N[C@H](CCN5CCOCC5)CSc5ccccc5)c(S(=O)(=O)C(F)(F)F)c4)cc3)CC2)C1 [ABT263]
IC50 (FAPs [1]; Mus musculus, 72 h, 3 days in culture): 14.7 µM | IC50 (FAPs [1]; Mus musculus, 168 h, 7 days in culture): 7.5 µM | senescent SCs in mouse skeletal muscle (scRNA seq) (SCs [2]): reduces the fraction | senescent FAPs in mouse skeletal muscle (scRNA seq) (FAPs [3]): reduces the fraction | avg_logFC of gene Capza2 (FAPs [3]; sheet abt_down, gene Capza2, cluster c7, scRNA-seq differential expression): -0.2501 | avg_logFC of gene Coq10b (FAPs [3]; sheet abt_down, gene Coq10b, cluster c7, scRNA-seq differential expression): -0.25 | avg_logFC of gene Hes1 (FAPs [3]; sheet abt_down, gene Hes1, cluster c1, scRNA-seq differential expression): -0.2504 | avg_logFC of gene Pds5b (FAPs [3]; sheet abt_down, gene Pds5b, cluster c9, scRNA-seq differential expression): -0.2501 | avg_logFC of gene Qpct (FAPs [3]; sheet abt_down, gene Qpct, cluster c3, scRNA-seq differential expression): -0.2504 | avg_logFC of gene Creld2 (FAPs [3]; sheet abt_up, gene Creld2, cluster c4, scRNA-seq differential expression): 0.8182 | avg_logFC of gene Cxcl14 (FAPs [3]; sheet abt_up, gene Cxcl14, cluster c5, scRNA-seq differential expression): 0.8906 | avg_logFC of gene Myl9 (FAPs [3]; sheet abt_up, gene Myl9, cluster c9, scRNA-seq differential expression): 0.9071 | avg_logFC of gene Plac8 (FAPs [3]; sheet abt_up, gene Plac8, cluster c3, scRNA-seq differential expression): 0.7972 | avg_logFC of gene Tpm2 (FAPs [3]; sheet abt_up, gene Tpm2, cluster c9, scRNA-seq differential expression): 1.1381 | burden of senescent cells in mice (senescent cells): reduced burden of senescent cells | IC50 ([4]; 72 h, 3 days in culture): 15.2 µM | IC50 ([4]; 168 h, 7 days in culture): 9 µM | IC50 (SCs [5]; Mus musculus, 168 h, SCs, 7 days in culture): 14.1 µM

COc1cccc2c1C(=O)c1c(O)c3c(c(O)c1C2=O)C[C@@](O)(C(=O)CO)C[C@@H]3O[C@H]1C[C@H](N)[C@H](O)[C@H](C)O1 [Doxo, Doxorubicin]
senescence induction in cultured FAPs (FAPs [6]): induced senescence | senescent SCs in mouse skeletal muscle (scRNA seq) (SCs [2]): induces senescence | body weight [7]: significantly decreased | gastrocnemius muscle weight normalized to body weight [7]: no difference | Cdkn1A mRNA in gastrocnemius and soleus muscles [8]: significantly increased | senescent FAPs in mouse skeletal muscle (scRNA seq) (FAPs [3]): induces senescence | senescence induction in cultured SCs (SCs [9]): induced senescence | burden of senescent cells in mice (senescent cells): induced senescence

Brc1ccc(CCC2(Cn3ccnc3)OCCO2)cc1.Cl [OB24]
viability of senescent versus non-senescent FAPs (FAPs [1]): slightly but significantly decreased the viability of FAPs | IC50 (FAPs [1]; 7 days in culture): 261 µM | senolysis in mDF cells [10]: ineffective | viability of senescent versus non-senescent HSMMs [4]: significantly decreased cell viability | viability of senescent versus non-senescent SCs (SCs [5]): no difference in killing

O=C(CC(c1ccccc1)c1ccccc1)Cn1ccnc1 [QC-308]
viability of senescent versus non-senescent FAPs (FAPs [1]): slightly but significantly decreased the viability of FAPs | senolysis in mDF cells [10]: ineffective | viability of senescent versus non-senescent HSMMs [4]: significantly decreased cell viability | viability of senescent versus non-senescent SCs (SCs [5]): no difference in killing
